Assay results reported in patent publication US7998937B2, “Flavonoid compound having an antiviral activity” (Korea Research Institute of Bioscience and Biotechnology, priority 2005, dated 2011).
≈ marks a conversion by molar mass, not a printed value. Read-outs that look alike come from different tables or passages of the source.

Tests used:
[1] = test system: porcine transmissible gastroenteritis virus (TGEV); assay: Anti-coronavirus inhibitory activity against TGEV in ST cells; format: cell-based; conditions: for inhibitory activity against TGEV (in words): 0.1-100 μg/mL, 48 hours
Description: (§1) Antiviral activity of quercetin-7-rhamnoside against porcine transmissible gastroenteritis virus (TGEV) and porcine respiratory coronavirus (PRCV), another kind of coronaviruses, was evaluated. ST cells were cultured on a 96-well microplate until the bottom of each well was completely covered with cells. Remaining culture medium was completely removed and each well was washed twice with a phosphate buffer. TGEV or PRCV solution adjusted to a concentration of TCID50 was added to each well. Each of quercetin-7-rhamnoside, conventional antiviral agents purchased from Sigma-ribavirin, lamivudine, azidovudine, acycloguanine and glycyrrhizhin-dissolved in dimethyl sulfoxide was added to each well to a final concentration of 0.1-100 μg/mL. […] Similarly to the aforesaid evaluation of antiviral inhibitory activity against PEDV, c ells treated with DMSO only and those treated with both DMSO and TGEV or both DMSO and PRCV were used as control groups.

[2] = test system: porcine respiratory coronavirus (PRCV); assay: Anti-coronavirus inhibitory activity against PRCV in ST cells; format: cell-based; conditions: for inhibitory activity against PRCV (in words): 0.1-100 μg/mL, 48 hours
Description: as §1

rotavirus (strain: OSU) = assay: Inhibitory activity against rotavirus in MA104 cells (SRB); format: cell-based; conditions: read-out: Inhibitory activity (%) (Mean ± S.D.)
Description: (§2) In order to evaluate the inhibitory activity of quercetin-7-rhamnoside against rota virus, the following in vitro test was performed using MA014 cells derived from pig kidney. Inhibitory activity of quercetin-7-rhamnoside against viral proliferation was measured by the method proposed by Kwon Dur-Han, et al. (Korean Patent Publication No. 2004-101863). Inhibitory activity against rotavirus (strain: OSU) was measured. MA104 cells were cultured on a 96-well microplate until the bottom of each well was completely covered with cells. Remaining culture medium was removed and each well was washed twice with a phosphate buffer. A rota virus solution adjusted to a concentration of TCID 50 was added to each well. […] After 48 hours, the MA104 cells were observed under a microscope. After adding 100 μL of 70% acetone, each well was kept at −20° C. for 1 hour. After drying in a desiccator, 100 μL of 0.4% (w/v) SRB (sulforhodamine B) solution dissolved in 1% (v/v) acetic acid was added. After 30 minutes of staining, the SRB solution not bound to the cells was washed off with 1% (v/v) acetic acid for 4 times. After drying, 100 μL of 10 mM Tris solution (pH 10.5) was added to each well to dissolve the stained substance at the bottom of the well. Light absorbance was measured at 562 nm to evaluate the antiviral activity. As control group, viability of cells treated with DMSO only was compared with those treated with both DMSO and virus. Each test was repeated for 2 times.

[3] = test system: porcine epidemic diarrhea virus (PEDV); assay: Antiviral activity against PEDV in Vero cells (SRB staining); conditions: for IC50 (concentration required for 50% inhibition of viruses) / Inhibitory activity (TI = CC50/IC50): PEDV in Vero cells, 48 hours; for IC50 (concentration required for 50% inhibition of viruses): maximum dosage 100 μg/mL; for IC50: Porcine epidemic diarrhea virus, Vero, 48 h, read-out: IC50 (concentration required for 50% inhibition of viruses); for Inhibitory activity (TI = CC50/IC50): 0.1-100 μg/mL
[4] = test system: influenza type A (H1N1/WS/33) virus; assay: Antiviral activity against influenza type A virus in MDCK cells (SRB); format: cell-based, influenza virus type A (H1N1; WS/33 strain); conditions: Influenza A virus; 10 μg/mL, influenza A H1N1/WS/33 in MDCK cells, 48 hours, repeated 3 times; read-out: Inhibitory activity (%) (Mean ± S.D.)
Description: In order to evaluate the inhibitory activity of quercetin-7-rhamnoside against influenza virus, the following in vitro test was performed using MDCK cells derived from dog kidney.
Inhibitory activity of quercetin-7-rhamnoside against viral proliferation was measured by the method proposed by Kwon Dur-Han, et al. (Korean Patent Application No. 2004-101863). Inhibitory activity against influenza virus type A (H1N1; WS/33 strain) was measured. MDCK cells were cultured on a 96-well microplate until the bottom of each well was completely covered with cells. Remaining culture medium was completely removed and each well was washed twice with a phosphate buffer. Each of quercetin-7-rhamnoside; conventional antiviral agents purchased from Sigma-ribavirin and amantadine; oseltamivir (trade name: Tamiflu) purchased from Roche; and zanamivir (trade name: Relenza) purchased from Glaxo Wellcome; dissolved in dimethyl sulfoxide was added to each well to a final concentration of 10 μg/mL. […] After adding 100 μL of 70% acetone, each well was kept at −20° C. for 1 hour. After drying in a desiccator, 100 μL of 0.4% (w/v) SRB (sulforhodamine B) solution dissolved in 1% (v/v) acetic acid was added. After 30 minutes' staining, the SRB staining solution not bound to the cells was washed off with 1% (v/v) acetic acid for 4 times. After drying, 100 μL of 10 mM Tris solution (pH 10.5) was added to each well to dissolve the stained substance at the bottom of the well. Light absorbance was measured at 562 nm to evaluate the antiviral activity. As control group, viability of cells treated with DMSO only was compared with those treated with both DMSO and virus. Each test was repeated 3 times.

[5] = test system: influenza type B (B/Lee/40) virus; assay: Inhibitory activity against influenza type B virus in MDCK cells (SRB); format: cell-based; conditions: Influenza B virus, read-out: Inhibitory activity (%) (Mean ± S.D.)
[6] = test system: rhinovirus (strain: rhinovirus 2); assay: Inhibitory activity against rhinovirus in HeLa cells (SRB); format: cell-based; conditions: for inhibition at 10 µg/mL: Enterovirus, HeLa, 48 h, read-out: Inhibitory activity (%) (Mean ± S.D.)
Description: as §2, with “against rhino” for “against rota”, “using HeLa, one of human cervical cancer cell lines, cells.” for “using MA014 cells derived from pig kidney.”, “2004-101863). […] HeLa” for “2004-101863). Inhibitory activity against rotavirus (strain: OSU) was measured. MA104”, “A rhino” for “A rota”, “the HeLa” for “the MA104”, “for 3” for “for 2”

in vitro [7] = conditions: African green monkey
in vitro [8] = conditions: pig
[9] = 10 μg/mL, rotavirus OSU in MA104 cells, 48 hours, repeated 2 times
[10] = 10 μg/mL, rhinovirus 2 in HeLa cells, 48 hours, repeated 3 times
[11] = 10 μg/mL, influenza B/Lee/40 in MDCK cells, 48 hours, repeated 3 times
[12] = Alphacoronavirus 1, 48 hours, read-out: IC50

## Nc1nc2c(ncn2COCCO)c(=O)[nH]1 [Acycloguanine, acycloguanine]
[1]
  inhibitory activity against TGEV (in words): no inhibitory activity
[2]
  inhibitory activity against PRCV (in words): no inhibitory activity
Rotavirus (strain: OSU); [9]
  inhibition at 10 µg/mL: 0.78%
[3]
  IC50 (concentration required for 50% inhibition of viruses): IC50 not attained even at the maximum dosage
  IC50: > 100 µg/mL

## NC12CC3CC(CC(C3)C1)C2 [Amantadine, amantadine]
[4]
  inhibition at 10 µg/mL: 14.6%
[5]; MDCK, 48 h
  inhibition at 10 µg/mL: -1.85%

## O=c1cc(-c2ccc(O)cc2)oc2cc(O)cc(O)c12 [Apigenin, apigenin]
[6]; [10]
  inhibition at 10 µg/mL: 9.24%
In vitro [7]
  CC50 at 48 h: 50 µg/mL (≈ 185 µM)
[3]
  IC50: 0.1 µg/mL (≈ 0.37 µM)

## O=c1c(-c2ccc(O)cc2)coc2cc(O[C@@H]3O[C@H](CO)[C@@H](O)[C@H](O)[C@H]3O)cc(O)c12 [Genistin, genistin]
[6]; [10]
  inhibition at 10 µg/mL: 13%
[3]
  IC50 (concentration required for 50% inhibition of viruses): IC50 not attained even at the maximum dosage.
  IC50: > 100 µg/mL

## CC1(C)[C@@H](O[C@H]2O[C@H](C(=O)O)[C@@H](O)[C@H](O)[C@H]2O[C@@H]2O[C@H](C(=O)O)[C@@H](O)[C@H](O)[C@H]2O)CC[C@]2(C)[C@H]3C(=O)C=C4[C@@H]5C[C@@](C)(C(=O)O)CC[C@]5(C)CC[C@@]4(C)[C@]3(C)CC[C@@H]12 [Glycyrrhizin, glycyrrhizin]
[1]
  inhibitory activity against TGEV (in words): no inhibitory activity
[2]
  inhibitory activity against PRCV (in words): no inhibitory activity
Rotavirus (strain: OSU); Rotavirus, MA104, 48 h
  inhibition at 10 µg/mL: 0.49%

## COc1ccc([C@@H]2CC(=O)c3c(O)cc(O[C@@H]4O[C@H](CO[C@@H]5O[C@@H](C)[C@H](O)[C@@H](O)[C@H]5O)[C@@H](O)[C@H](O)[C@H]4O)cc3O2)cc1O [Hesperidin, hesperidin]
[6]; [10]
  Inhibitory activity (%) (Mean ± S.D.): 3.12%
[3]
  IC50 (concentration required for 50% inhibition of viruses): IC50 not attained even at the maximum dosage.

## Nc1ccn([C@@H]2CS[C@H](CO)O2)c(=O)n1 [Lamivudine, lamivudine]
[1]
  inhibitory activity against TGEV (in words): no inhibitory activity
[2]
  inhibitory activity against PRCV (in words): no inhibitory activity
Rotavirus (strain: OSU); [9]
  inhibition at 10 µg/mL: 0.02%
[3]
  IC50: > 100 µg/mL

## O=c1cc(-c2ccc(O)c(O)c2)oc2cc(O)cc(O)c12 [Luteolin, luteolin]
[6]; [10]
  inhibition at 10 µg/mL: 21.8%
[3]
  IC50: 0.21 µg/mL (≈ 0.734 µM)

## O=c1c(O)c(-c2ccc(O)c(O)c2)oc2cc(O)cc(O)c12 [Quercetin, quercetin]
[6]; [10]
  inhibition at 10 µg/mL: 9.87%
In vitro [7]
  CC50 at 48 h: 365 µg/mL (≈ 1210 µM)
[3]
  IC50: 10.7 µg/mL (≈ 35.4 µM)

## C[C@@H]1O[C@@H](Oc2c(-c3ccc(O)c(O)c3)oc3cc(O)cc(O)c3c2=O)[C@H](O)[C@H](O)[C@H]1O [Quercitrin, quercitrin]
[6]
  inhibition at 10 µg/mL: 13.4%
[3]
  IC50: > 100 µg/mL

## CC(=O)N[C@H]1[C@H]([C@H](O)[C@H](O)CO)OC(C(=O)O)=C[C@@H]1N=C(N)N [Relenza, zanamivir]
[4]
  inhibition at 10 µg/mL: 52.7%
[5]; [11]
  inhibition at 10 µg/mL: 3.4%
Rotavirus (strain: OSU); [9]
  inhibition at 10 µg/mL: 0.5%
[3]
  IC50 (concentration required for 50% inhibition of viruses): IC50 not attained even at the maximum dosage

## NC(=O)c1ncn([C@@H]2O[C@H](CO)[C@@H](O)[C@H]2O)n1 [Ribavirin, ribavirin]
[1]; [12]
  IC50: 55.1 µg/mL (≈ 226 µM)
[2]; [12]
  IC50: 61.6 µg/mL (≈ 252 µM)
[4]
  inhibition at 10 µg/mL: 74.2%
[5]; [11]
  inhibition at 10 µg/mL: 95.8%
Rotavirus (strain: OSU); [9]
  inhibition at 10 µg/mL: 82.3%
[6]; [10]
  Inhibitory activity (%) (Mean ± S.D.): 42.32 ± 4.38%
  inhibition at 10 µg/mL: 42.3%
In vitro [7]
  CC50 at 48 h: > 100 µg/mL
In vitro [8]
  CC50 at 48 h: > 100 µg/mL
[3]
  IC50: 4.1 µg/mL (≈ 16.8 µM)

## C[C@@H]1O[C@@H](OC[C@H]2O[C@@H](Oc3c(-c4ccc(O)c(O)c4)oc4cc(O)cc(O)c4c3=O)[C@H](O)[C@@H](O)[C@@H]2O)[C@H](O)[C@H](O)[C@H]1O [Rutin, rutin]
[6]; [10]
  inhibition at 10 µg/mL: 25.7%
[3]
  IC50: > 100 µg/mL

## CCOC(=O)C1=C[C@@H](OC(CC)CC)[C@H](NC(C)=O)[C@@H](N)C1 [Tamiflu, oseltamivir]
[4]
  inhibition at 10 µg/mL: -9.78%
[5]; MDCK, 48 h
  inhibition at 10 µg/mL: -1.43%
[3]
  IC50 (concentration required for 50% inhibition of viruses): IC50 not attained even at the maximum dosage

## catechin
[6]; [10]
  Inhibitory activity (%) (Mean ± S.D.): 11.21%
[3]
  Inhibitory activity (TI = CC50/IC50): > 9.0
  IC50 (concentration required for 50% inhibition of viruses): 11.1 µg/mL
[3]; listed as catechin
  Inhibitory activity (TI = CC50/IC50): 9.0
